Measurements published in patent US9315443B2, “Liquid cation exchanger” (priority 2011, dated 2016).
“Also recorded” adds a separate entry of the source.

Columns and labels:
[1] = tested on: ALA and ALAME producing E. coli strain BL21 (DE3) T1r pBT10 pACYC:Duet[TAcv]; assay: Oxygen transfer rate (OTR) during biotransformation with various ion exchangers (Example 4); format: cell-based; settings: 150 mL lauric acid methyl ester with ion exchanger (10% w/w) added to the fermentation broth
Experimental: The biotransformation of lauric acid methyl ester to aminolauric acid methyl ester was tested in the 8-fold parallel fermentation system of DasGip with various ion exchangers.
1 L reactors were used for the fermentation. The pH probes were calibrated by means of a two-point calibration with standard solutions of pH 4.0 and pH 7.0. The reactors were filled with 300 mL water and were autoclaved for 20 min at 121° C., to ensure sterility. Then the pO2 probes were polarized overnight (for at least 6 h). On the next morning, the water was removed under the clean bench and was replaced with high-cell-density medium with 50 mg/L kanamycin and 34 mg/L chloramphenicol. Next the pO2 probes were calibrated with a single-point calibration (stirrer: 600 rpm/gassing: 10 sL/h air) and the feed, correcting-agent and induction-agent sections were cleaned by Clean-in-Place. For this, the hoses were rinsed with 70% ethanol, then with 1 M NaOH, then with sterile deionized water and finally were filled with the respective media.
The ALA and ALAME producing E. coli strain BL21 (DE3) T1r pBT10 pACYC:Duet[TAcv] was first grown from cryoculture in LB medium (25 mL in a 100 mL baffle flask) with 50 mg/L kanamycin and 34 mg/L chloramphenicol overnight at 37° C. and 200 rpm for approx. 18 h.
The 3 cultures were combined in a shaking flask and the optical density was determined as 7.2. For inoculating the reactors at an optical density of 0.1, in each case 4.2 mL was taken up in a 5 mL syringe and the reactors were inoculated by cannula through a septum.
The experiment carried out can be divided into two phases, growing, in which the cells are to reach a specified optical density, and the subsequent biotransformation, in which the expression of the genes necessary for the biotechnological processes of production of ALAME was induced. The pH values were adjusted on one side with ammonia (12.5%) to pH 6.8. During growing and biotransformation, the dissolved oxygen (DO) in the culture was controlled at 30% by means of the stirrer rotary speed and the gassing rate. Fermentation was carried out as fed batch, wherein feed start, 5 g/Lh glucose feed (500 g/L glucose with 1% MgSO4*7H2O and 2.2% NH4Cl), was triggered by a DO peak. […] Expression of transaminase was induced 2 h after feed start by the automatic addition of IPTG (1 mM). Induction of the alk-genes was effected by manual addition of DCPK (0.025% v/v) 10 h after feed start. The optical density of the culture broths was determined before the start of biotransformation.
The biotransformation phase started 14 h after feed start. For this, 150 mL of a mixture of lauric acid methyl ester and the respective ion exchanger (10% w/w) were added as batch to the fermentation broth. Di(2-ethylhexyl-)phosphoric acid (DEHPA), lauric acid, oleic acid, palmitic acid, palmitoleic acid, stearic acid and a mixture of free fatty acids from the saponification of globe thistle oil were used as ion exchangers. In order to make an amino group donor available for the transaminase, 10.7 mL of an alanine solution (125 g/L) was added to the fermentation broth simultaneously with addition of the organic phase. For sampling, 2 mL of fermentation broth was taken from the vessel and a portion of this was diluted 1/20 in an acetone-HCl mixture (c(HCl)=0.1 mol/L) and extracted. Samples were taken from all 8 reactors at 1.25 h, 3 h, 5 h, 20 h, 22 h and […] after the start of biotransformation. The oxygen transfer rate (OTR) and carbon transfer rate (CTR) were determined during the fermentation by exhaust gas analysis on the DasGip systems. The fermentation was ended 22 h after the start of biotransformation.

E. coli BL21(DE3) = assay: CFU determination, toxicity of liquid cation exchangers (Example 2); settings: for Number of CFUs after 22 or 24 h relative to t = 0 h: Escherichia coli
Description: 50% DEHPA or lauric acid (15%), in each case dissolved in LAME and with equimolar or 25 mol % loading with ALAME, as liquid cation exchanger, was contacted with an E. coli BL21 (DE3) strain and the influence of these two compounds on the strain's ability to form colonies, expressed in CFUs, was investigated.

E. coli W3110 [2] = assay: CFU determination, toxicity of the solvent LAME (Example 1)
Experimental: Before the determination of CFUs could be undertaken, an LB plate (10 g/L peptone from casein, 5 g/L yeast extract, 10 g/L NaCl) was streaked with E. coli BW3110 and incubated for 24 h. In the evening of the next day, a preculture of this previously streaked plate was inoculated. […] On the next day the preculture with an OD600 of 0.2 was inoculated in 200 mL of M9 medium (Na2HPO4 6.79 g/L; KH2PO4 3.0 g/L; NaCl 0.5 g/L; NH4Cl 1 g/L; 1 mL/L trace element solution, pH 7.4. Trace element solution: HCl 37% (=455.8 g/L) 36.50 g/L; MnCl2*7H2O 1.91 g/L; ZnSO4*7H2O 1.87 g/L; Na-EDTA*2H2O (Titriplex III) 0.84 g/L; H3BO3 0.30 g/L; Na2MoO4*2H2O 0.25 g/L; CaCl2*2H2O 4.70 g/L; FeSO4*7H2O 17.80 g/L; CuCl2*2H2O 0.15 g/L) with 3% glucose (w/v) and incubated for approx. 20 h. After incubation of the main culture, the cells were harvested, centrifuged at 5258 g and 4° C. for 10 min and, with an OD600 of 30, were resuspended in 10 mL of 50 mM Kpi buffer at pH 7.4 (or 25 mM HEPES buffer pH 7.4, when CFU determinations with ALAME were carried out). Both buffer solutions used contained 5% glucose (w/v). Then the bacterial suspension was transferred to the shaking flasks and the solutions of the respective substances were added. After mixing by swirling the flask, 100 μL of the suspension was withdrawn by pipette and put into 900 μL of prepared sterile saline. This corresponded to sampling at time point t0. The mixtures were then incubated at 250 rpm and 30° C. The CFUs were determined over a period of 22 h. First the samples were taken at time points t0, t3, t6 and t22. For some mixtures another sampling time point t1.5 was added and furthermore another additional dilution series was plated out, in order to minimize deviations.
The OD600 was 60. The cells were resuspended in 10 mL Kpi buffer and then mixed in the flask with 5 mL LAME 98% (w/w). One dilution step per assay was plated out.

E. coli W3110 [3] = settings: Test 2, culture covered with equal volume of solvent
Experimental: First a preculture comprising 20 ml of LB medium in a 100-ml baffle flask was inoculated with a cryoculture of the corresponding strain. The culture was cultured overnight at 37° C. with shaking at 200 rpm and was used on the next day, to inoculate an identical main culture to an OD of 0.2. The main cultures (each 30 mL of LB medium) were then incubated further under the same conditions. At an OD of 0.4 to 0.5, the main culture was covered in each case with equal volumes (30 ml) of solvent and was then incubated further.
For determination of the number of CFUs (colony-forming units), in the next tests 0.1-ml samples were taken and were diluted in sterile 0.9% NaCl solution. Suitable dilution steps were plated out on LB-agar plates. After incubation at 34° C. overnight, the colonies that had formed were counted and the CFUs were determined.
In this case two different concentrations of oleic acid were used and the volume was adjusted by adding the corresponding amount of LAME (lauric acid methyl ester).
In this case various amounts of an unsaturated fatty acid were compared with an unsaturated fatty acid with respect to their toxicity when used as liquid cation exchanger. […] The volumes of the various cation exchangers were compared with LAME. The number of CFUs was determined at the start, after 4.5 h and after 24 h.

E. coli W3110 [4] = assay: CFU determination, lowering ALAME toxicity by contacting with a liquid cation exchanger (Example 3); format: cell-based; settings: ALAME 0.2% (w/v) dissolved in aqueous systems

Structure (SMILES) | toxicity to cells concluded from the OTR [1] | course of the OTR after addition of the ion exchanger [1] | Number of CFUs after 22 or 24 h relative to t = 0 h (E. coli BL21(DE3)) | also measured
CCCCCC/C=C\CCCCCCCC(=O)O [palmitoleic acid] | even lower toxicity than the saturated fatty acids |  |  | 
CCCCCCCCCCCC(=O)OC [LAME, lauric acid methyl ester] |  |  |  | tolerance by the strains used (E. coli BL21(DE3); preliminary tests): tolerated well; percentage drop in the live cell count (E. coli W3110 [2]; 5 mL LAME 98% (w/w) with cells in 10 mL Kpi buffer, OD600 60, after 22 h): 30.3%; number of CFU/mL (E. coli W3110 [2]; 5 mL LAME 98% (w/w) with cells in 10 mL Kpi buffer, OD600 60, over a period of 6 h): remained constant; toxicity of LAME with respect to biotechnologically relevant microorganisms (E. coli W3110 [2]; compared with potassium phosphate buffer (Kpi) as negative control): does not have toxic action; also recorded: relatively low toxicity
CCCCCCCCCCCCCCCC(=O)O [palmitic acid] | far less toxic | much shallower |  | 
CCCCC(CC)C(=O)O (stereo not drawn) [2-Ethylhexanoic acid] |  |  | 0% | Number of CFUs after 22 or 24 h relative to t = 0 h (E. coli W3110 [3]): 0%
CCCCC(CC)COP(=O)(O)OCC(CC)CCCC (stereo not drawn) [DEHPA, di(2-ethylhexyl)phosphoric acid, reference compound] | highly toxic to cells | drops to 0 within a short time | 0% | 
CCCCCCCCCCCCCCCCCC(=O)O [stearic acid] | far less toxic | much shallower |  | 
CC(C)CCCCCC(=O)O [Isononanoic acid] |  |  | 0% | Number of CFUs after 22 or 24 h relative to t = 0 h (E. coli W3110 [3]): 0%
CCCCCCCC/C=C\CCCCCCCC(=O)O [oleic acid] | even lower toxicity than the saturated fatty acids |  |  | 
COC(=O)CCCCCCCCCCCN [ALAME, 12-aminolauric acid methyl ester] |  |  |  | action on bacteria (E. coli W3110 [4]): bactericidal action
CCCCCCCCCCCC(=O)O [Lauric acid] | far less toxic than DEHPA | intrusion of the OTR, but it is less pronounced | 1.2% | 
